# Source: ChEMBL document CHEMBL1201862, “PubChem BioAssay data set” (2004)
# Counter-ions that a name gives are not always drawn.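 Briefly, cells in 96-well plates were exposed to five compound concentrations for 48 h, and endpoints were estimated by linear interpolation. At the GI50, growth is halved.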 Calls of active or inactive are those of the source. No stated cut-off is given here; in the data, active = GI50 up to about 1.1 µM and inactive = higher.
# Columns and labels:
# Assay in all cases: NCI anticancer screen, dose series, 48 h
# 786-0 = test system: 786-0
# A549 = test system: A549
# EKVX = test system: EKVX
# HOP-62 = test system: HOP-62
# HOP-92 = test system: HOP-92
# Hs-578T = test system: Hs-578T
# IGROV-1 = test system: IGROV-1
# K562 = test system: K562
# KM12 = test system: KM12
# LOX IMVI = test system: LOX IMVI
# MCF7 = test system: MCF7
# MDA-MB-435 = test system: MDA-MB-435
# MDA-N = test system: MDA-N
# NCI-H226 = test system: NCI-H226
# NCI-H23 = test system: NCI-H23
# RXF 393 = test system: RXF 393
# SF-268 = test system: SF-268
# T47D = test system: T47D
# UACC-62 = test system: UACC-62
# SK-MEL-28 = test system: SK-MEL-28
Compound,GI50 (786-0),GI50 (A549),GI50 (EKVX),GI50 (HOP-62),GI50 (HOP-92),GI50 (Hs-578T),GI50 (IGROV-1),GI50 (K562),GI50 (KM12),GI50 (LOX IMVI),GI50 (MCF7),GI50 (MDA-MB-435),GI50 (MDA-N),GI50 (NCI-H226),GI50 (NCI-H23),GI50 (RXF 393),GI50 (SF-268),GI50 (T47D),GI50 (UACC-62),GI50 (SK-MEL-28)
O=C1c2cc([N+](=O)[O-])ccc2NC2C(O)c3ccccc3N12 (stereo not given),25.2 µM (inactive),35.7 µM (inactive),0.619 µM (active),30.1 µM (inactive),23.9 µM (inactive),0.706 µM (active),24.9 µM (inactive),22.2 µM (inactive),42.7 µM (inactive),43.8 µM (inactive),17.3 µM (inactive),52.8 µM (inactive),69.5 µM (inactive),29.2 µM (inactive),24.3 µM (inactive),16.9 µM (inactive),27.2 µM (inactive),14.2 µM (inactive),3.45 µM (inactive),
CCCCCCC(C)c1ccc2c(c1)C(=O)c1nc3ccncc3c(=O)n1-2 (stereo not given),2.29 µM (inactive),5.65 µM (inactive),4.25 µM (inactive),5.13 µM (inactive),78.3 µM (inactive),9.62 µM (inactive),2.51 µM (inactive),0.419 µM (active),1.79 µM (inactive),1.06 µM (active),5.06 µM (inactive),0.352 µM (active),0.237 µM (active),4.16 µM (inactive),2.14 µM (inactive),4.06 µM (inactive),36.2 µM (inactive),3.63 µM (inactive),2.29 µM (inactive),14.5 µM (inactive)
O=C1/C(=C/c2ccccc2[N+](=O)[O-])N=C(c2ccccc2)N1c1nc2ccccc2s1,21.7 µM (inactive),34.2 µM (inactive),29 µM (inactive),27.1 µM (inactive),21 µM (inactive),19.1 µM (inactive),11.9 µM (inactive),15 µM (inactive),17.9 µM (inactive),22 µM (inactive),13 µM (inactive),19.4 µM (inactive),26.1 µM (inactive),41.3 µM (inactive),17.4 µM (inactive),16.9 µM (inactive),20.5 µM (inactive),21.7 µM (inactive),,31.3 µM (inactive)
COC[C@@H](C[C@H]1O[C@@](O)([C@H](O)[C@@H]2C[C@H](OC)[C@@H](O)CC/C=C(C)/C=C/[C@@H](O[C@@H]3O[C@@H](C)[C@H](OC)[C@@H](O)[C@@H]3O)[C@H](C)/C=C(C)/C=C(C)/C=C(\C)C(=O)O2)[C@H](C)[C@@H](O)[C@H]1C)O[C@H]1C[C@](C)(O)[C@@H](O[C@H]2C[C@@H](OC)[C@H](O)[C@@H](C)O2)C(C)O1 (stereo not given in full),> 100 µM (inactive),1.32 µM (inactive),0.119 µM (active),,> 90.2 µM (inactive),69 µM (inactive),> 100 µM (inactive),0.149 µM (active),> 66.2 µM (inactive),46.5 µM (inactive),0.0785 µM (active),> 89.1 µM (inactive),> 100 µM (inactive),0.91 µM (active),0.0532 µM (active),> 100 µM (inactive),> 40.8 µM (inactive),0.188 µM (active),> 100 µM (inactive),> 67.8 µM (inactive)
COC(=O)CC[C@@H](C)[C@H]1CC[C@H]2[C@@H]3CC[C@@H]4C[C@H](O)CC[C@]4(C)[C@H]3CC[C@]12C,18.5 µM (inactive),18.5 µM (inactive),19.2 µM (inactive),18.4 µM (inactive),13.8 µM (inactive),23.1 µM (inactive),17.2 µM (inactive),10.7 µM (inactive),17.5 µM (inactive),18.7 µM (inactive),18.3 µM (inactive),16.7 µM (inactive),19.1 µM (inactive),20.3 µM (inactive),16.5 µM (inactive),18.2 µM (inactive),21.6 µM (inactive),19.4 µM (inactive),17.9 µM (inactive),19 µM (inactive)
CC1=C(CO)C2=C(C)C3(CC3)[C@@](C)(O)C(=O)C2=C1 [IROFULVEN],0.199 µM (active),0.113 µM (active),0.19 µM (active),0.161 µM (active),0.309 µM (active),0.29 µM (active),0.149 µM (active),3.37 µM (inactive),0.697 µM (active),0.582 µM (active),0.242 µM (active),1.47 µM (inactive),1.04 µM (active),0.191 µM (active),0.0877 µM (active),0.0507 µM (active),0.234 µM (active),0.218 µM (active),,0.582 µM (active)
NCCCNCCCCNCCCN [SPERMINE TETRAHYDROCHLORIDE],1.46 µM (inactive),> 100 µM (inactive),17.8 µM (inactive),> 100 µM (inactive),1.93 µM (inactive),11.9 µM (inactive),13.2 µM (inactive),2.33 µM (inactive),> 100 µM (inactive),8.11 µM (inactive),2.79 µM (inactive),> 41.2 µM (inactive),15.2 µM (inactive),> 100 µM (inactive),67 µM (inactive),14.1 µM (inactive),> 42.7 µM (inactive),2.36 µM (inactive),> 100 µM (inactive),
